The values below come from patent US6573279B1, “Isoquinoline derivatives or salts thereof” (priority 1999, dated 2003).

The term melting point denotes the temperature, or range, at which the solid turns liquid. What is called EC30 is the concentration at which the effect reaches the 30% level. A low value points to an effect from little substance.

In series [1] the test system is right atrium sample, spontaneous cardiac rate. Briefly: Test on cardiac rate lowering effect (spontaneously beating isolated right atrium in Magnus tube). As to conditions: Cavia porcellus, 0.5 h; concentration lowering the spontaneous cardiac rate by 30%; guinea pig right atrium; data 30 minutes after addition. The protocol: 2. Test on Cardiac Rate Lowering Effect
The test on cardiac rate lowering effect was carried out by a method according to Walter, K., et al. Eur. J. Pharmacol., 104(1-2):9-18, 1984.
Male guinea pigs of a Hartley strain having a body weight of about 250 to 400 g were fainted away by knocking the head and killed by draining out the blood, and the heart was excised. A right atrium sample was prepared in a Tyrode's solution which was fully aerated with 95% oxygen and 5% carbon dioxide gas. The sample was applied to a hook made of stainless steel and suspended at a load tension of 1.0 g in a Magnus tube filled with a Tyrode's solution which was well aerated with 95% oxygen and 5% carbon dioxide gas, whereby the spontaneously pulsing cardiac rate was recorded. After suspending, the sample was allowed to stand for a stabilization period of 1 hour or more, the test compound was cumulatively added into a Magnus tube every 30 to 45 minutes and a concentration vs. effect curve was determined from the data after 30 minutes from the administration of the substance, whereby the effect was judged. The cardiac rate lowering effect was compared in terms of the concentration (EC30) of the substance which lowered the spontaneous cardiac rate to an extent of 30% from the data before the administration.

The nature of series [2]: Test on convulsion expression. Conditions: 40 mg/kg i.v. (tail vein), once; male Wister rats; observed about 1 hour. In kind it is in vivo, rat. How it is done: 3. Test on Convulsion Expression
Male rats of a Wister strain having a body weight of 250 to 350 g under awaking were fixed in a cage, and the test compound was administered from a tail vein. The test compound was administered at a dose of either 20 mg/kg (i.v.) or 40 mg/kg (i.v.) once for each rat. […] The influence of the test compound on the spontaneous behavior of the rat was evaluated by the fact whether or not the convulsion was noted within the observed period.

Structures can show the parent of a compound that is named as a salt.

Take `COc1cccc(C(=O)NCCN2CCCC(C(=O)N3CCc4cc(OC)c(OC)cc4C3)C2)c1` (racemic) (as salt: oxalate) [Example 10, (±)-N-{2-[3-(6,7-dimethoxy-1,2,3,4-tetrahydroisoquinoline-2-carbonyl)-piperidino]ethyl}-3-methoxybenzamide oxalate]: the melting point lay in the range of 120 to 123 °C.

As for `COc1cc2c(cc1OC)CN(C(=O)C1CCCN(CCC(=O)Nc3ccc4c(c3)OCO4)C1)CC2` (racemic) [Example 2, (±)-3-[3-(6,7-dimethoxy-1,2,3,4-tetrahydroisoquinoline-2-carbonyl)piperidino]-N-(3,4-methylenedioxyphenyl)propanamide hydrochloride], the 30% effect concentration (EC30) in series [1] turned out to be 300 nM. Also, the “General Findings (convulsion)” value in series [2] was “No abnormal finding”.

With `COc1ccc(NC(=O)CCN2CCCC(C(=O)N3CCc4cc(OC)c(OC)cc4C3)C2)cc1` (racemic) [Example 4, (±)-3-[3-(6,7-dimethoxy-1,2,3,4-tetrahydroisoquinoline-2-carbonyl)piperidino]-N-(4-methoxyphenyl)propanamide hydrochloride], in series [1], the 30% effect level (EC30) was put at 570 nM. Besides, the “General Findings (convulsion)” value in series [2] is “No abnormal finding”.

For `COc1cc2c(cc1OC)CN(C(=O)C1CCCN(CCNC(=O)c3ccc4c(c3)OCO4)C1)CC2` (racemic) [Example 9, (±)-N-{2-[3-(6,7-dimethoxy-1,2,3,4-tetrahydrolsoquinoline-2-carbonyl)piperidino]ethyl}-3,4-methylenedioxybenzamide hydrochloride], it took 270 nM to reach the 30% level in series [1] (EC30). For the same compound, the “General Findings (convulsion)” value in series [2] was “No abnormal finding”.

For `COc1cccc(C(=O)NCCN2CCCC(C(=O)N3CCc4cc(OC)c(OC)cc4C3)C2)c1` (racemic) [Example 10, (±)-N-{2-[3-(6,7-dimethoxy-1,2,3,4-tetrahydroisoquinoline-2-carbonyl)-piperidino]ethyl}-3-methoxybenzamide oxalate], the EC30 in series [1] was 270 nM. For the same compound, the “General Findings (convulsion)” value in series [2] is on record as “No abnormal finding”.

Compound `COc1cc2c(cc1OC)CN(C(=O)[C@@H]1CCCN(CCC(=O)Nc3ccc4c(c3)OCO4)C1)CC2` [Example 5, (−)-3-[(R)-3-(6,7-dimethoxy-1,2,3,4-tetrahydroisoquinoline-2-carbonyl)piperidino]-N-(3,4-methylenedioxyphenyl)propanamide L-tartrate] came in with a 30% effect concentration (EC30) in series [1] of 380 nM. In series [2], the “General Findings (convulsion)” value was “No abnormal finding”.

In turn, `COc1cc2c(cc1OC)CN(C(=O)[C@H]1CCCN(CCC(=O)Nc3ccc4c(c3)OCO4)C1)CC2` [Example 6, (+)-3-[(S)-3-(6,7-dimethoxy-1,2,3,4-tetrahydroisoquinoline-2-carbonyl)piperidino]-N-(3,4-methylenedioxyphenyl)propanamide D-tartrate] gave an EC30 in series [1] of 320 nM. Besides, in series [2], the “General Findings (convulsion)” value was “No abnormal finding”.

For the compound `COc1cc2c(cc1OC)CN(C(=O)C1CCCN(CCC(=O)Nc3cccc(Cl)c3)C1)CC2` (stereo not drawn) [Example 12], it took 270 nM to reach the 30% level in series [1] (EC30).

Compound `COc1cc2c(cc1OC)CN(C(=O)C1CCCN(CCC(=O)Nc3ccc4ncsc4c3)C1)CC2` (stereo not drawn) [Example 14] gave a 30% effect concentration (EC30) in series [1] of 470 nM. The “General Findings (convulsion)” value in series [2] is “No abnormal finding”.

The compound `COc1cc2c(cc1OC)CN(C(=O)C1=CCCN(CCC(=O)Nc3ccc4c(c3)OCO4)C1)CC2` [Example 22] registered a melting point of 159 to 160 °C.

As for `COc1ccc(NC(=O)CCN2CCC=C(C(=O)N3CCc4cc(OC)c(OC)cc4C3)C2)cc1` [Example 23], the melting point lay in the range of 155 to 164 °C.

`COc1ccc(C(=O)NCCN2CCCC(C(=O)N3CCc4cc(OC)c(OC)cc4C3)C2)cc1C` (stereo not drawn) [Example 26]: it took 240 nM to reach the 30% level in series [1] (EC30). In series [2], the “General Findings (convulsion)” value is on record as “No abnormal finding”.

`COc1ccc(C(=O)NCCN2CCCC(C(=O)N3CCc4cc(OC)c(OC)cc4C3)C2)cc1F` (stereo not drawn) [Example 27]: the EC30 in series [1] was determined as 410 nM. Moreover, the “General Findings (convulsion)” value in series [2] is reported as “No abnormal finding”.

Consider `COc1cc(C(=O)NCCN2CCCC(C(=O)N3CCc4cc(OC)c(OC)cc4C3)C2)ccc1C` (stereo not drawn) [Example 28], for which, in series [2], the “General Findings (convulsion)” value is “No abnormal finding”.

Regarding `COc1cc2c(cc1OC)CN(C(=O)C1CCCN(CCNC(=O)c3ccc(F)c(F)c3)C1)CC2` (stereo not drawn) [Example 29], the concentration for an effect of 30% (EC30) in series [1] was 290 nM. Also, the “General Findings (convulsion)” value in series [2] was “No abnormal finding”.

For `COc1cc2c(cc1OC)CN(C(=O)C1CCCN(CCNC(=O)c3ccc4c(c3)OCCO4)C1)CC2` (stereo not drawn) [Example 30], the “General Findings (convulsion)” value in series [2] is given as “No abnormal finding”.

`COc1cc2c(cc1OC)CN(C(=O)[C@@H]1CCCN(CCNC(=O)c3ccc4c(c3)OCO4)C1)CC2` [Example 37] showed a melting point of 150 to 151 °C. In series [1], this compound yielded a 30% effect concentration (EC30) of 300 nM. For the same compound, the “General Findings (convulsion)” value in series [2] is listed as “No abnormal finding”.

For the compound `COc1cc2c(cc1OC)CN(C(=O)[C@H]1CCCN(CCNC(=O)c3ccc4c(c3)OCO4)C1)CC2` [Example 38], the melting point is 154 to 155 °C. This compound showed an EC30 in series [1] of 290 nM. Also, the “General Findings (convulsion)” value in series [2] was “No abnormal finding”.

In series [1], `COc1cc2c(cc1OC)CN(C(=O)C1CCCN(CCNC(=O)c3ccc(F)cc3)C1)CC2` (stereo not drawn) [Example 40] registered an EC30 of 330 nM. In addition, the “General Findings (convulsion)” value in series [2] is reported as “No abnormal finding”.

Turning to `COc1cc2c(cc1OC)CN(C(=O)C1=CCCN(CCNC(=O)c3ccc4c(c3)OCO4)C1)CC2` [Example 46], the melting point was in the range of 162 to 164 °C.

Turning to `COc1ccc(C(=O)NCCN2CCC=C(C(=O)N3CCc4cc(OC)c(OC)cc4C3)C2)cc1` [Example 47], the melting point fell in the range of 153 to 154 °C. Also, the “General Findings (convulsion)” value in series [2] was “No abnormal finding”.

Compound `COc1cc2c(cc1OC)CN(C(=O)C1CN(CCNC(=O)c3ccc4c(c3)OCO4)C1)CC2` [Example 48] registered a melting point of 131 to 133 °C.

In series [1], `COc1cc2c(cc1OC)CN(C(=O)[C@@H]1CCCN(CCNC(=O)c3ccc(F)cc3)C1)CC2` [Example 49] showed a 30% effect concentration (EC30) of 290 nM. The “General Findings (convulsion)” value in series [2] is listed as “No abnormal finding”.

Consider `COc1cc2c(cc1OC)CN(C(=O)[C@H]1CCCN(CCNC(=O)c3ccc(F)cc3)C1)CC2` [Example 50], for which the 30% effect concentration (EC30) in series [1] was determined as 310 nM. Also, the “General Findings (convulsion)” value in series [2] is “No abnormal finding”.
